In US20100105680A1, “SUBSTITUTED DIMETHYLCYCLOBUTYL COMPOUNDS, THEIR PREPARATION AND USE IN MEDICAMENTS” (priority 2006, published 2010):

Molecular target: T1, sigma-1 receptor (Cavia porcellus, UniProt Q60492)
T1 construct: guinea pig brains were homogenized; from tissue; host or cells: guinea pig brain membranes
Test: Sigma-1 receptor binding ([3H]-(+)-pentazocine, brain membranes)
Settings: [3H]-(+)-pentazocine 0.5 nM, guinea pig brain membranes; for inhibition at 0.01 µM / Percent Inhibition Percent Concentration (μM) 0.0100 SIGMA-1 receptor: compound concentration 0.0100 μM; for inhibition at 0.01 µM: read-out: Percent Inhibition Percent Concentration (μM) 0.0100 SIGMA-1 receptor; for inhibition at 0.1 µM / Percent Inhibition Percent Concentration (μM) 0.1000 SIGMA-1 receptor: compound concentration 0.1000 μM; for inhibition at 0.1 µM: read-out: Percent Inhibition Percent Concentration (μM) 0.1000 SIGMA-1 receptor
Protocol: Brain membrane preparation and binding assays for the sigma-1 receptor were performed as described (DeHaven-Hudkins et al., Characterization of the binding of [^3H]-(+)-pentazocine to recognition sites in guinea pig brain, Eur. J. Pharmacol. 227, 371-378) with some modifications.
In brief, guinea pig brains were homogenized in 10 vols. (w/v) of Tris-HCl 50 mM, 0.32 M sucrose, pH 7.4, with a Kinematica Polytron PT 3000 at 15000 r.p.m. for 30 s. The homogenate was centrifuged at 1000 g for 10 min at 4° C. and the supernatants collected and centrifuged again at 48000 g for 15 min at 4° C. The pellet was resuspended in 10 volumes of Tris-HCl buffer (50 mM, pH 7.4), incubated at 37° C. for 30 min, and centrifuged at 48000 g for 20 min at 4° C. Following this, the pellet was resuspended in fresh Tris-HCl buffer (50 mM, pH 7.4) and stored on ice until use.
Each assay tube contained 10 μL of [^3H]-(+)-pentazocine (final concentration of 0.5 nM), 900 μL of the tissue suspension to a final assay volume of 1 mL and a final tissue concentration of approximately 30 mg tissue net weight/mL. Non-specific binding was defined by addition of a final concentration of […] haloperidol. All tubes were incubated at 37° C. for 150 min before termination of the reaction by rapid filtration over Schleicher & Schuell GF 3362 glass fibre filters [previously soaked in a solution of 0.5% polyethylenimine for at least 1 h]. Filters were then washed with four times with 4 mL of cold Tris-HCl buffer (50 mM, pH 7.4). Following addition of scintillation cocktail, the samples were allowed to equilibrate overnight. The amount of bound radioactivity was determined by liquid scintillation spectrometry using a Wallac Winspectral 1414 liquid scintillation counter. Protein concentrations were determined by the method of Lowry et al. (Protein measurement with the Folin phenol reagent, J. Biol. Chem, 193, 265).
The binding of the compounds of the present invention to sigma-1 receptors was tested as described above.

T1 sequence (Q60492 whole entry): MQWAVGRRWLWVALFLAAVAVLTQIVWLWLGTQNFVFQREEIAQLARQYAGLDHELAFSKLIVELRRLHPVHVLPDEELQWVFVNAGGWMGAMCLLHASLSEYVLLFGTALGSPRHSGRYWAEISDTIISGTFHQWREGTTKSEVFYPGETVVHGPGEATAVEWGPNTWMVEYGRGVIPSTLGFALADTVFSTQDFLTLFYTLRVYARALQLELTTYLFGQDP

Row | Compound | Ki [nM] | inhibition at 0.01 µM [%] | inhibition at 0.1 µM [%] | Percent Inhibition Percent Concentration (μM) 0.0100 SIGMA-1 receptor [%] | Percent Inhibition Percent Concentration (μM) 0.1000 SIGMA-1 receptor [%]
1 | CC1(C)[C@H](CCOCc2ccccc2)C[C@@H]1CN1CCOCC1 [compound 1] | 6.1 | 62.8 | 79.7 |  | 
2 | CC1(C)[C@H](CCOCc2ccccc2)C[C@@H]1CN1CCCCC1 [compound 2] | 1.5 | 66.5 | 95.9 |  | 
3 | CC1(C)[C@H](CCOCc2ccccc2)C[C@@H]1CN1CCC(c2ccccc2)CC1 [compound 3] |  | 30.2 | 97.7 |  | 
4 | CC1(C)[C@H](CCOCc2ccccc2)C[C@@H]1CN1CCN(c2ccccc2)CC1 [compound 4] |  | 24.1 | 82.2 |  | 
5 | CN1CCN(C[C@H]2C[C@@H](CCOCc3ccccc3)C2(C)C)CC1 [compound 5] |  | 42.5 | 92.4 |  | 
6 | CC1(C)[C@@H](COCc2ccccc2)C[C@H]1CN1CCOCC1 [compound 6] | 1.3 | 91 | 98.4 |  | 
7 | CC1(C)[C@@H](COCc2ccccc2)C[C@H]1CN1CCCCC1 [compound 7] | 0.79 | 94.5 | 101 |  | 
8 | CC1(C)[C@@H](COCc2ccccc2)C[C@H]1CN1CCC(c2ccccc2)CC1 [compound 8] | 10.9 | 48.3 | 101 |  | 
9 | CC1(C)[C@@H](COCc2ccccc2)C[C@H]1CN1CCN(c2ccccc2)CC1 [compound 9] | 14.6 | 60 | 94.7 |  | 
10 | CN1CCN(C[C@@H]2C[C@H](COCc3ccccc3)C2(C)C)CC1 [compound 10] | 0.95 | 86.7 | 99.5 |  | 
11 | CC(O)[C@@H]1C[C@H](CCN2CCOCC2)C1(C)C (stereo partly drawn) [compound 11] |  | -8.3 | 44.4 |  | 
12 | CC(O)[C@@H]1C[C@H](CCN2CCCCC2)C1(C)C (stereo partly drawn) [compound 12] |  | 5.5 | 44.1 |  | 
13 | CC(O)(c1ccccc1)[C@@H]1C[C@H](CCN2CCOCC2)C1(C)C (stereo partly drawn) [compound 13] | 1.2 | 77.8 | 95.2 |  | 
14 | CC(O)(c1ccccc1)[C@@H]1C[C@H](CCN2CCCCC2)C1(C)C (stereo partly drawn) [compound 14] | 1.9 | 75.6 | 97.5 |  | 
15 | CC1(C)[C@@H](CCOc2ccccc2)C[C@H]1CN1CCOCC1 [compound 15] | 4.2 | 93.6 | 95.4 |  | 
16 | CC1(C)[C@@H](CCOc2ccccc2)C[C@H]1CN1CCCCC1 [compound 16] | 2.2 | 97.5 | 96.4 |  | 
17 | CC1(C)[C@@H](CCO)C[C@H]1CN1CCCCC1 [compound 17] | 41.8 | 45.2 | 61.5 |  | 

Row | Compound | Ki [nM] | inhibition at 0.01 µM [%] | inhibition at 0.1 µM [%] | Percent Inhibition Percent Concentration (μM) 0.0100 SIGMA-1 receptor [%] | Percent Inhibition Percent Concentration (μM) 0.1000 SIGMA-1 receptor [%]
18 | CC1(C)[C@H](CCO)C[C@@H]1CN1CCCCC1 [compound 18] |  | -21.4 | 44.8 |  | 
19 | CC1(C)[C@@H](CCO)C[C@H]1CN1CCOCC1 [compound 19] |  | 17.1 | 42.3 |  | 
20 | CC1(C)[C@H](CCO)C[C@@H]1CN1CCOCC1 [compound 20] |  | 31.5 | 63.1 |  | 
21 | CC1CCN(C[C@@H]2C[C@H](CCO)C2(C)C)CC1 [compound 21] |  | 25.7 | 77.1 |  | 
22 | CC1(C)[C@@H](CCO)C[C@H]1CN1CCC(c2ccccc2)CC1 [compound 22] | 1.4 | 91.9 | 96.8 |  | 
23 | C[C@@H]1CN(C[C@@H]2C[C@H](CCO)C2(C)C)C[C@H](C)O1 [compound 23] |  | 27.6 | 70.6 |  | 
24 | CN(Cc1ccccc1)CC1CC(CCO)C1(C)C (stereo not drawn) [compound 24] | 3.3 | 69.7 | 92 |  | 
25 | CC1(C)[C@H](CO)C[C@@H]1CCN1CCC(Cc2ccccc2)CC1 [compound 25] | 1.2 | 83 | 98.3 |  | 
26 | COC(=O)C[C@H]1C[C@@H](CN2CCCCC2)C1(C)C [compound 26] |  | 23.9 | 50 |  | 
27 | CC1(C)[C@@H](CCOCc2ccccc2)C[C@H]1CN1CCCCC1 [compound 27] | 1.1 | 96.5 | 104 |  | 
28 | CC1CCN(C[C@@H]2C[C@H](CCOCc3ccccc3)C2(C)C)CC1 [compound 28] | 5 | 93.5 | 100 |  | 
29 | CC1(C)[C@@H](CCOCc2ccccc2)C[C@H]1CN1CCC(c2ccccc2)CC1 [compound 29] | 16.6 | 76.9 | 95.6 |  | 
30 | CC1(C)[C@@H](CCOCc2ccccc2)C[C@H]1CN1CCSCC1 [compound 30] | 1 | 74 | 91.8 |  | 
31 | CN1CCN(C[C@@H]2C[C@H](CCOCc3ccccc3)C2(C)C)CC1.O=C(O)C(=O)O [compound 35] | 5.3 |  |  | 76.7 | 95.9
32 | CC1(C)[C@@H](CCOCc2ccccc2)C[C@H]1CN1CCN(c2ccccc2)CC1 [compound 36] | 47 | 65.8 | 88.3 |  | 
33 | CC1(C)[C@@H](CCOCc2ccccc2)C[C@H]1CN1CCN(c2ccccc2)CC1.O=C(O)C(=O)O [compound 37] | 33.5 |  |  | 79.7 | 98.8

The next lines start with results.

Row | Ki [nM] | inhibition at 0.01 µM [%] | inhibition at 0.1 µM [%] | Compound | Percent Inhibition Percent Concentration (μM) 0.0100 SIGMA-1 receptor [%] | Percent Inhibition Percent Concentration (μM) 0.1000 SIGMA-1 receptor [%]
34 | 1.7 | 89.9 | 101 | CC1(C)[C@@H](CCOCc2ccccc2)C[C@H]1CN1CCOCC1 [compound 31] |  | 
35 | 3.6 | 94.6 | 99.1 | C[C@@H]1CN(C[C@@H]2C[C@H](CCOCc3ccccc3)C2(C)C)C[C@H](C)O1 [compound 32] |  | 
36 | 0.6 ± 0.2 | 85.3 | 89.8 | CC1(C)[C@@H](CCOCc2ccccc2)C[C@H]1CN1CCCC1 [compound 33] |  | 
37 | 3.6 | 92.3 | 96.2 | CN1CCN(C[C@@H]2C[C@H](CCOCc3ccccc3)C2(C)C)CC1 [compound 34] |  | 
38 | 1.2 | 88.6 | 98.5 | CC1(C)[C@H](COCc2ccccc2)C[C@@H]1CCN1CCCCC1 [compound 38] |  | 
39 | 8.4 | 94.1 | 95.8 | CC1(C)[C@H](COCc2ccccc2)C[C@@H]1CCN1CCOCC1 [compound 39] |  | 
40 |  | 16.3 | 60.1 | CC1(C)[C@@H](CCN2CCCC(c3ccccc3)C2)C[C@H]1CN1CCOCC1 (stereo partly drawn) [compound 40] |  | 
41 |  | 19.7 | 88 | CC1(C)[C@@H](CCN2CCC(Cc3ccccc3)CC2)C[C@H]1CN1CCOCC1 [compound 42] |  | 
42 |  | 41.7 | 82.8 | CC1(C)[C@@H](CCn2cccn2)C[C@H]1CN1CCOCC1 [compound 44] |  | 
43 |  | 10.3 | 28.4 | CC1(C)[C@@H](CCn2cncn2)C[C@H]1CN1CCOCC1 [compound 45] |  | 
44 | 13.5 | 50.2 | 83 | CC1(C)[C@@H](CCn2ccc3c2CCCC3=O)C[C@H]1CN1CCOCC1 [compound 46] |  | 
45 |  | 36.8 | 92 | CC1(C)[C@@H](CCN2CCc3ccccc3C2)C[C@H]1CN1CCOCC1 [compound 47] |  | 
46 |  | 34.3 | 72.4 | CC1(C)[C@@H](CCn2ccnc2)C[C@H]1CN1CCCCC1 [compound 48] |  | 
47 | 4.9 | 45.7 | 92 | CC1(C)[C@@H](CCn2cccn2)C[C@H]1CN1CCCCC1 [compound 49] |  | 
48 |  | 2 | 20.9 | CC1(C)[C@@H](CCn2cncn2)C[C@H]1CN1CCCCC1 [compound 50] |  | 
49 |  | 36.1 | 81.9 | CC1(C)[C@@H](CCN2CCC(c3ccccc3)CC2)C[C@H]1CN1CCCCC1 [compound 51] |  | 
50 |  | -0.6 | 52.6 | CC1(C)[C@@H](CCN2CCC(Cc3ccccc3)CC2)C[C@H]1CN1CCCCC1 [compound 52] |  | 
51 |  | -6.6 | 73.6 | CC1(C)[C@@H](CCn2ccc3c2CCCC3=O)C[C@H]1CN1CCCCC1 [compound 53] |  | 
